Experimental data from patent publication US9161935B2 (TEVA PHARMACEUTICAL INDUSTRIES, LTD., priority 2012, dated 2015).

Tested on: Sub-Populations of Crohn's Disease Patients
Assay: CD-LAQ-201 sub-populations of Crohn's disease patients (Example 2)
Assay type: in vivo, human
Description: This study was conducted according and with similar requirements as presented in Example 1. […] Patients, who have received anti-TNFαs in the past, tend to reflect a more severe, refractory segment of the Crohn's disease population. […] This sub-cohort analysis describes remission rates at week 8 for patients who were classified as having a predominantly inflammatory disease (based on the Montreal classifications) versus those that have a fibrostenotic or penetrating disease.

[1] = Laq 1.0 mg, Previous use of anti-TNFαs YES, week 8
[2] = Laq 1.5 mg, Fibrostenotic, week 8
[3] = Laq 1.5 mg, Inflammatory, week 8
[4] = Laq 1.5 mg, Oral steroids on Baseline NO
[5] = Laq 1.5 mg, Oral steroids on Baseline NO, week 8
[6] = Laq 1.5 mg, Oral steroids on Baseline YES
[7] = Laq 1.5 mg, Oral steroids on Baseline YES, week 8
[8] = Laq 1.5 mg, Previous Operations NO
[9] = Laq 1.5 mg, Previous Operations NO, week 8
[10] = Laq 1.5 mg, Previous Operations YES
[11] = Laq 1.5 mg, Previous Operations YES, week 8
[12] = Laq 1.5 mg, Previous use of anti-TNFαs NO
[13] = Laq 1.5 mg, Previous use of anti-TNFαs NO, week 8
[14] = Laq 1.5 mg, Previous use of anti-TNFαs YES
[15] = Laq 1.5 mg, Previous use of anti-TNFαs YES, week 8
[16] = Laq 2.0 mg, Fibrostenotic, week 8
[17] = Laq 2.0 mg, Inflammatory, week 8
[18] = Laq 2.0 mg, Oral steroids on Baseline NO
[19] = Laq 2.0 mg, Oral steroids on Baseline NO, week 8
[20] = Laq 2.0 mg, Oral steroids on Baseline YES
[21] = Laq 2.0 mg, Oral steroids on Baseline YES, week 8
[22] = Laq 2.0 mg, Previous Operations NO
[23] = Laq 2.0 mg, Previous Operations NO, week 8
[24] = Laq 2.0 mg, Previous Operations YES
[25] = Laq 2.0 mg, Previous Operations YES, week 8
[26] = Laq 2.0 mg, Previous use of anti-TNFαs NO
[27] = Laq 2.0 mg, Previous use of anti-TNFαs NO, week 8
[28] = Laq 2.0 mg, Previous use of anti-TNFαs YES
[29] = Laq 2.0 mg, Previous use of anti-TNFαs YES, week 8

## CCN(C(=O)c1c(O)c2c(Cl)cccc2n(C)c1=O)c1ccccc1 [laquinimod]
Laq 1.0 mg, Previous use of anti-TNFαs YES
  Responders100 - N (%): N: 5
[1]
  Remission - N (%): %: 16.7%
  Remission - N (%): N: 3
Laq 1.5 mg, Fibrostenotic
  CDAI Change from Baseline - Mean ± SD: −51.8
  Responders70 - N (%): %: 27.8%
  Responders70 - N (%): N: 5
  Responders100 - N (%): %: 27.8%
  Responders100 - N (%): N: 5
[2]
  Remission - N (%): %: 11.1%
  Remission - N (%): N: 2
Laq 1.5 mg, Inflammatory
  CDAI Change from Baseline - Mean ± SD: −43.8
  Responders70 - N (%): %: 36.4%
  Responders70 - N (%): N: 4
  Responders100 - N (%): %: 27.3%
  Responders100 - N (%): N: 3
[3]
  Remission - N (%): %: 18.2%
  Remission - N (%): N: 2
[4]
  CDAI Change from Baseline - Mean ± SD: −46.8
  Responders70 - N (%): %: 25.0%
  Responders70 - N (%): N: 5
  Responders100 - N (%): %: 20.0%
  Responders100 - N (%): N: 4
[5]
  Remission - N (%): %: 10.0%
  Remission - N (%): N: 2
[6]
  CDAI Change from Baseline - Mean ± SD: −52.6
  Responders70 - N (%): %: 44.4%
  Responders70 - N (%): N: 4
  Responders100 - N (%): %: 44.4%
  Responders100 - N (%): N: 4
[7]
  Remission - N (%): %: 22.2%
  Remission - N (%): N: 2
[8]
  CDAI Change from Baseline - Mean ± SD: −68.3
  Responders70 - N (%): %: 43.8%
  Responders70 - N (%): N: 7
  Responders100 - N (%): %: 37.5%
  Responders100 - N (%): N: 6
[9]
  Remission - N (%): %: 25.0%
  Remission - N (%): N: 4
[10]
  CDAI Change from Baseline - Mean ± SD: −26.0
  Responders70 - N (%): %: 15.4%
  Responders70 - N (%): N: 2
  Responders100 - N (%): %: 15.4%
  Responders100 - N (%): N: 2
[11]
  Remission - N (%): %: 0.0%
  Remission - N (%): N: 0
[12]
  CDAI Change from Baseline - Mean ± SD: −95.5
  Responders70 - N (%): %: 54.5%
  Responders70 - N (%): N: 6
  Responders100 - N (%): %: 45.5%
  Responders100 - N (%): N: 5
[13]
  Remission - N (%): %: 27.3%
  Remission - N (%): N: 3
[14]
  CDAI Change from Baseline - Mean ± SD: −18.4
  Responders70 - N (%): %: 16.7%
  Responders70 - N (%): N: 3
  Responders100 - N (%): %: 16.7%
  Responders100 - N (%): N: 3
[15]
  Remission - N (%): %: 5.6%
  Remission - N (%): N: 1
Laq 2.0 mg, Fibrostenotic
  CDAI Change from Baseline - Mean ± SD: −40.7
  Responders70 - N (%): %: 22.2%
  Responders70 - N (%): N: 4
  Responders100 - N (%): %: 22.2%
  Responders100 - N (%): N: 4
[16]
  Remission - N (%): %: 16.7%
  Remission - N (%): N: 3
Laq 2.0 mg, Inflammatory
  CDAI Change from Baseline - Mean ± SD: −33.1
  Responders70 - N (%): %: 36.4%
  Responders70 - N (%): N: 4
  Responders100 - N (%): %: 36.4%
  Responders100 - N (%): N: 4
[17]
  Remission - N (%): %: 18.2%
  Remission - N (%): N: 2
[18]
  CDAI Change from Baseline - Mean ± SD: −39.7
  Responders70 - N (%): %: 29.2%
  Responders70 - N (%): N: 7
  Responders100 - N (%): %: 29.2%
  Responders100 - N (%): N: 7
[19]
  Remission - N (%): %: 16.7%
  Remission - N (%): N: 4
[20]
  CDAI Change from Baseline - Mean ± SD: −20.3
  Responders70 - N (%): %: 20.0%
  Responders70 - N (%): N: 1
  Responders100 - N (%): %: 20.0%
  Responders100 - N (%): N: 1
[21]
  Remission - N (%): %: 20.0%
  Remission - N (%): N: 1
[22]
  CDAI Change from Baseline - Mean ± SD: −54.6
  Responders70 - N (%): %: 37.5%
  Responders70 - N (%): N: 6
  Responders100 - N (%): %: 37.5%
  Responders100 - N (%): N: 6
[23]
  Remission - N (%): %: 18.8%
  Remission - N (%): N: 3
[24]
  CDAI Change from Baseline - Mean ± SD: −14.2
  Responders70 - N (%): %: 15.4%
  Responders70 - N (%): N: 2
  Responders100 - N (%): %: 15.4%
  Responders100 - N (%): N: 2
[25]
  Remission - N (%): %: 15.4%
  Remission - N (%): N: 2
[26]
  CDAI Change from Baseline - Mean ± SD: −56.4
  Responders70 - N (%): %: 55.6%
  Responders70 - N (%): N: 10
  Responders100 - N (%): %: 33.3%
  Responders100 - N (%): N: 6
[27]
  Remission - N (%): %: 27.8%
  Remission - N (%): N: 5
[28]
  CDAI Change from Baseline - Mean ± SD: −102.2
  Responders70 - N (%): %: 50.0%
  Responders70 - N (%): N: 6
  Responders100 - N (%): %: 50.0%
  Responders100 - N (%): N: 6
[29]
  Remission - N (%): %: 25.0%
  Remission - N (%): N: 3
Laquinimod 0.5 mg
  effect of oral steroids together with laquinimod on remission at week 8: potential synergistic effect
  effect on remission at week 8 with or without previous operations: had an effect over placebo in both sub-populations
Laquinimod 0.5 mg and 1 mg, week 8
  remission in predominantly inflammatory disease vs the complementary cohort: may work better
